US8022080B2, “Small molecules with antiprotozoal activity” (Radix Pharmaceuticals Inc., priority 2009, dated 2011)
Converted amounts (≈) assume the structure as drawn. Where two headings read alike, the source gives them in different places.

How the values were obtained:
[1] = system: human adult liver epithelial cells (THLE-3); assay: In vitro toxicity evaluation, Sulforhodamine B; type: cell-based; details: for IC50: Homo sapiens, read-out: IC50 THLE-3; for Selectivity IC50 (THLE-3)/IC50 (D6): ratio THLE-3 vs D6
Method: (§1) For in vitro toxicological studies, the following cell line was chosen: human adult liver epithelial cells (THLE-3). THLE-3 cells express phenotypic characteristics of normal adult liver epithelial cells and constitute a valuable model for pharmacotoxicological studies.
Human adult liver epithelial cells (THLE-3) was maintained in tissue culture flasks in Waymouth's medium (Gibco, N.Y.) supplemented with 10% fetal bovine serum. Toxicity tests were performed in 96-well tissue culture plates using the protein-binding dye Sulforhodamine B. Test compounds were serially diluted and added to empty wells of the 96-well plate. THLE-3 cells in their culture medium were immediately seeded into the wells. Solvent blanks (no compound) were run in each test. After 72 hours under culture conditions cells were fixed to the plate by layering 50% TCA (4° C.) over the growth media in each well to produce a final TCA concentration of 10%. After incubating for one hour at 4° C., cultures were washed five times with tap water and left air-dried. Wells were stained for 30 min. with 0.4% (w/v) SRB in 1% acetic acid and washed four times with 1% acetic acid. Cultures were left air-dried and bound dye was solubilized with 10 mM Tris base (pH 10.5) for 15 min. on a gyratory shaker at room temperature. A Spectra MAX Plus Microtiter Plate Reader (Molecular Devices, Menlo Park, Calif.) was used to measure the optical density at wavelengths of 490-530 nm.

[2] = system: P. falciparum W2 (chloroquine resistant); assay: In vitro anti-malarial activity, [3H]hypoxanthine uptake, W2 clone; type: cell-based, Plasmodium falciparum
Description: as §1
(§2) Two P. falciparum malaria parasite clones, W2 and D6, from Malaria Research and Reference Reagent Resource Center (MR4), were utilized in susceptibility testing. […] Test compounds were initially dissolved in DMSO and diluted 400 fold in RPMI 1640 culture medium supplemented with 25 mM Hepes, 32 mM NaHCO3 and 10% Albumax I (Gibco, N.Y.). These solutions were subsequently serially diluted two-fold with a Beckman Biomek® 1000 Robot (Fullerton, Calif.) over 11 different concentrations. The parasites were exposed to serial dilutions of each compound for 48 hrs and incubated at 37° C. with 5% O2, 5% CO2 and 90% N2 prior to the addition of [^3H]hypoxanthine. After a further incubation of 18 hrs, parasite DNA was harvested from each microtiter well using Packard Filtermate™ 196 Harvester (Meriden, Conn.) onto glass filters. Uptake of [^3H]hypoxanthine was measured with a Packard TopCount Liquid Scintillation Counter (Packard Instrument Co.).

[3] = system: P. falciparum D6 (chloroquine sensitive); assay: In vitro anti-malarial activity, [3H]hypoxanthine uptake, D6 clone; type: cell-based, Plasmodium falciparum
Description: as §1, §2

[4] = system: P. berghei; assay: Blood schizontocidal test in mice, oral; type: in vivo; details: for toxicity in mice: oral, at the highest dose tested
Method: Drugs were mixed in 0.5% hydroxycellulose 0.1% Tween 80 and administered orally b.i.d. on days 3, 4 and 5 postinfection. CD-1 male or female mice, 5 weeks of age, were infected with 5×10^4 parasitized erythrocytes of Plasmodium berghei KBG-173 mm strain. Blood films were taken on day +6 and weekly thereafter until day +60. Parasitemias were calculated and SD90 value (dose suppressing 90% of the parasites in treated groups compared with the infected non-treated controls) on day +6 postinfection. Mortality data was tabulated for 60 days at which time all mice surviving that were blood film negative were considered cured. […]

[5] = system: P. berghei; assay: Suppressive blood schizontocidal activity in mice, subcutaneous single dose; type: in vivo; details: 72 h after infection
Method: Mice were treated with a single dose of the compound administered subcutaneously 72 h after infection. Number of cures is the number of mice surviving, out of five, 60 days postinfection.

[6] = system: Plasmodium berghei KBG-173; assay: Prophylactic test in mice, oral; type: in vivo; details: for Mice infected and treated/Mice surviving day 60: oral; for protection from malaria: single dose of 0.5 mg/kg within 2 days pre-infection through 2 days post-infection
Method: Compounds were tested for oral prophylactic activity.
CD-I male or female mice, 5 weeks of age, were infected with 5×10^4 parasitized erythrocytes of Plasmodium berghei KBG-173 mm strain. […]

[7] = oral dose 0.25 mg/kg/day (total dose 0.75 mg/kg)
[8] = oral dose 1.0 mg/kg/day (total dose 3.0 mg/kg)
[9] = oral dose 4.0 mg/kg/day (total dose 12 mg/kg)
[10] = oral dose 16 mg/kg/day (total dose 48 mg/kg)
[11] = oral dose 64 mg/kg/day (total dose 192 mg/kg)
[12] = THLE3, THLE-3 cells, 72 hours, cell growth inhibition
[13] = Plasmodium falciparum, W2; read-out: IC50 W2 Strain
[14] = Plasmodium falciparum, D6; read-out: IC50 D6 Strain
[15] = subcutaneous single dose 1 mg/kg
[16] = subcutaneous single dose 2 mg/kg
[17] = subcutaneous single dose 4 mg/kg
[18] = subcutaneous single dose 8 mg/kg
[19] = subcutaneous single dose 16 mg/kg
[20] = subcutaneous single dose 32 mg/kg
[21] = subcutaneous single dose 64 mg/kg
[22] = subcutaneous single dose 128 mg/kg
[23] = day of treatment 1, dose 0.5 mg/kg
[24] = day of treatment 1, dose 2 mg/kg
[25] = day of treatment 1, dose 8 mg/kg
[26] = day of treatment 1, dose 32 mg/kg
[27] = day of treatment 2, dose 0.5 mg/kg
[28] = day of treatment 2, dose 2 mg/kg
[29] = day of treatment 2, dose 8 mg/kg
[30] = day of treatment 2, dose 32 mg/kg
[31] = day of treatment −1, dose 0.5 mg/kg
[32] = day of treatment −1, dose 2 mg/kg
[33] = day of treatment −1, dose 8 mg/kg
[34] = day of treatment −1, dose 32 mg/kg
[35] = day of treatment −2, dose 0.5 mg/kg
[36] = day of treatment −2, dose 2 mg/kg
[37] = day of treatment −2, dose 8 mg/kg
[38] = day of treatment −2, dose 32 mg/kg

| Structure (SMILES) | Selectivity IC50 (THLE-3)/IC50 (D6) [1] | Mice surviving 60 days/Mice infected and treated [4, 7] | Mice surviving 60 days/Mice infected and treated [4, 8] | Mice surviving 60 days/Mice infected and treated [4, 9] | Mice surviving 60 days/Mice infected and treated [4, 10] | Mice surviving 60 days/Mice infected and treated [4, 11] | IC50 [1, 12] | IC50 [2, 13] | inhibitory activity against chloroquine resistant malaria strain (W-2), in words ([2]; W-2 strain) | inhibitory activity against chloroquine sensitive malaria strain (D-6), in words ([3]; D-6 strain) | IC50 [3, 14] | toxicity in mice [4] | Mice surviving 60 days/Mice infected and treated [5, 15] | Mice surviving 60 days/Mice infected and treated [5, 16] | Mice surviving 60 days/Mice infected and treated [5, 17] | Mice surviving 60 days/Mice infected and treated [5, 18] | Mice surviving 60 days/Mice infected and treated [5, 19] | Mice surviving 60 days/Mice infected and treated [5, 20] | Mice surviving 60 days/Mice infected and treated [5, 21] | Mice surviving 60 days/Mice infected and treated [5, 22] | also measured |
| --- | --- | --- | --- | --- | --- | --- | --- | --- | --- | --- | --- | --- | --- | --- | --- | --- | --- | --- | --- | --- | --- |
| CCN(CC)CCCC(C)Nc1ccnc2cc(Cl)ccc12 (centres unmarked) [Chloroquine, reference compound] | 463 | 0/7 | 0/7 | 2/7 | 4/7 | 0/7 | – | – | – | – | – | – | – | – | – | – | – | – | – | – | IC50 ([1]; THLE3, 72 h): 2920 ng/mL (≈ 9.13 µM); IC50 ([2]; Plasmodium falciparum, W2, read-out: IC50 W2 Strain): 108 ng/mL (≈ 0.338 µM); IC50 ([3]; Plasmodium falciparum, D6, read-out: IC50 D6 Strain): 6.3 ng/mL (≈ 0.0197 µM) |
| CC[C@@]12C=Cc3nc4c(OC)c(OC)c5c(c4cc3C1N(C(C)=O)CC1O[C@@H]12)C(=O)[C@](C)(C(=O)OC)N5C(C)=O (some centres unmarked) [Formula II] | 7.3 × 10^4 | 7/7 | 7/7 | 7/7 | 7/7 | 7/7 | 15400 ng/mL | 0.23 ng/mL | equally potent inhibitory activity | equally potent inhibitory activity | 0.21 ng/mL | no mice showed toxicity | 4/5 | 5/5 | 5/5 | 5/5 | 5/5 | 5/5 | 5/5 | 5/5 | Mice infected and treated/Mice surviving day 60 [6, 23]: 5/5; Mice infected and treated/Mice surviving day 60 [6, 24]: 5/5; Mice infected and treated/Mice surviving day 60 [6, 25]: 5/5; Mice infected and treated/Mice surviving day 60 [6, 26]: 5/5; Mice infected and treated/Mice surviving day 60 [6, 27]: 5/5; Mice infected and treated/Mice surviving day 60 [6, 28]: 5/5; Mice infected and treated/Mice surviving day 60 [6, 29]: 5/5; Mice infected and treated/Mice surviving day 60 [6, 30]: 5/5; Mice infected and treated/Mice surviving day 60 [6, 31]: 5/5; Mice infected and treated/Mice surviving day 60 [6, 32]: 5/5; Mice infected and treated/Mice surviving day 60 [6, 33]: 5/5; Mice infected and treated/Mice surviving day 60 [6, 34]: 5/5; Mice infected and treated/Mice surviving day 60 [6, 35]: 5/5; Mice infected and treated/Mice surviving day 60 [6, 36]: 5/5; Mice infected and treated/Mice surviving day 60 [6, 37]: 5/5; Mice infected and treated/Mice surviving day 60 [6, 38]: 5/5; protection from malaria [6]: completely protected from malaria |
| CC[C@]12C=CCN(C(C)=O)C1c1cc3c(nc1C=C2)c(OC)c(OC)c1c3cc(C(=O)SC)n1C(C)=O (some centres unmarked) [Formula I] | 5.3 × 10^4 | 7/7 | 7/7 | 7/7 | 7/7 | 7/7 | 17100 ng/mL | 0.29 ng/mL | equally potent inhibitory activity | equally potent inhibitory activity | 0.32 ng/mL | no mice showed toxicity | 4/5 | 5/5 | 5/5 | 5/5 | 5/5 | 5/5 | 5/5 | 5/5 | Mice infected and treated/Mice surviving day 60 [6, 23]: 5/5; Mice infected and treated/Mice surviving day 60 [6, 24]: 5/5; Mice infected and treated/Mice surviving day 60 [6, 25]: 5/5; Mice infected and treated/Mice surviving day 60 [6, 26]: 5/5; Mice infected and treated/Mice surviving day 60 [6, 27]: 5/5; Mice infected and treated/Mice surviving day 60 [6, 28]: 5/5; Mice infected and treated/Mice surviving day 60 [6, 29]: 5/5; Mice infected and treated/Mice surviving day 60 [6, 30]: 5/5; Mice infected and treated/Mice surviving day 60 [6, 31]: 5/5; Mice infected and treated/Mice surviving day 60 [6, 32]: 5/5; Mice infected and treated/Mice surviving day 60 [6, 33]: 5/5; Mice infected and treated/Mice surviving day 60 [6, 34]: 5/5; Mice infected and treated/Mice surviving day 60 [6, 35]: 5/5; Mice infected and treated/Mice surviving day 60 [6, 36]: 5/5; Mice infected and treated/Mice surviving day 60 [6, 37]: 5/5; Mice infected and treated/Mice surviving day 60 [6, 38]: 5/5; protection from malaria [6]: completely protected from malaria |
